Experimental data reported in patent publication US20150105252A1, “SUBSTITUTED PYRAZOLES AS HERBICIDES” (E I DU PONT DE NEMOURS AND COMPANY, priority 2013, published 2015).

Experiments:
[1] = system: ducksalad; assay: Test C flooded paddy test; format: in vivo, Heteranthera limosa; conditions: Flood
From the text: (§1) At time of treatment, test pots were flooded to 3 cm above the soil surface, treated by application of test compounds directly to the paddy water, and then maintained at that water depth for the duration of the test. Treated plants and controls were maintained in a greenhouse for 13 to 15 days, after which time all species were compared to controls and visually evaluated. […] A dash (-) response means no test result.

[2] = system: crabgrass, large; assay: Test A postemergence; format: in vivo, Digitaria sanguinalis; conditions: Postemergence, 1000 g ai/ha; visual rating after approx. 10 days, 0 to 100 scale (0 no effect, 100 complete control)
Outline: (§2)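 Growth medium: loam soil blended with sand. Preemergence treatment used a directed soil spray right after planting; postemergence treatment targeted seedlings at one to two leaves (2–10 cm height). Response was judged by eye relative to untreated plants about 10 days later on a 0–100 control scale.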

[3] = system: pigweed; assay: Test A postemergence; format: in vivo, Amaranthus retroflexus; conditions: Postemergence, 1000 g ai/ha; visual rating after approx. 10 days, 0 to 100 scale (0 no effect, 100 complete control)
Outline: as §2

[4] = system: corn; assay: Test A preemergence; format: in vivo, Zea mays; conditions: Preemergence, 1000 g ai/ha; 0 to 100 scale, 0 no effect, 100 complete control
Outline: as §2

[5] = system: corn; assay: Test A postemergence; format: in vivo, Zea mays; conditions: Postemergence, 1000 g ai/ha; visual rating after approx. 10 days, 0 to 100 scale (0 no effect, 100 complete control)
Outline: as §2

[6] = system: crabgrass, large; assay: Test A preemergence; format: in vivo, Digitaria sanguinalis; conditions: Preemergence, 1000 g ai/ha; 0 to 100 scale, 0 no effect, 100 complete control
Outline: as §2

[7] = system: wheat; assay: Test A postemergence; format: in vivo, Triticum aestivum; conditions: Postemergence, 1000 g ai/ha; visual rating after approx. 10 days, 0 to 100 scale (0 no effect, 100 complete control)
Outline: as §2

[8] = system: barnyardgrass; assay: Test A preemergence; format: in vivo, Echinochloa crus-galli; conditions: Preemergence, 1000 g ai/ha; 0 to 100 scale, 0 no effect, 100 complete control
Outline: as §2

[9] = system: velvetleaf; assay: Test A preemergence; format: in vivo, Abutilon theophrasti; conditions: Preemergence, 1000 g ai/ha; 0 to 100 scale, 0 no effect, 100 complete control
Outline: as §2

[10] = system: sedge, umbrella; assay: Test C flooded paddy test; format: in vivo, Cyperus difformis; conditions: Flood
Outline: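 Ratings were visual and made relative to untreated controls after 13 to 15 greenhouse days.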

[11] = system: morningglory; assay: Test A postemergence; format: in vivo, Ipomoea spp.; conditions: Postemergence, 1000 g ai/ha; visual rating after approx. 10 days, 0 to 100 scale (0 no effect, 100 complete control)
Outline: as §2

[12] = system: morningglory; assay: Test A preemergence; format: in vivo, Ipomoea spp.; conditions: Preemergence, 1000 g ai/ha; 0 to 100 scale, 0 no effect, 100 complete control
Outline: as §2

[13] = system: foxtail, giant; assay: Test A preemergence; format: in vivo, Setaria faberii; conditions: Preemergence, 1000 g ai/ha; 0 to 100 scale, 0 no effect, 100 complete control
Outline: as §2

[14] = system: wheat; assay: Test A preemergence; format: in vivo, Triticum aestivum; conditions: Preemergence, 1000 g ai/ha; 0 to 100 scale, 0 no effect, 100 complete control
Outline: as §2

[15] = system: pigweed; assay: Test A preemergence; format: in vivo, Amaranthus retroflexus; conditions: Preemergence, 1000 g ai/ha; 0 to 100 scale, 0 no effect, 100 complete control
Outline: as §2

[16] = system: rice; assay: Test C flooded paddy test; format: in vivo, Oryza sativa; conditions: Flood
From the text: as §1

[17] = system: barnyardgrass; assay: Test A postemergence; format: in vivo, Echinochloa crus-galli; conditions: Postemergence, 1000 g ai/ha; visual rating after approx. 10 days, 0 to 100 scale (0 no effect, 100 complete control)
Outline: as §2

[18] = system: velvetleaf; assay: Test A postemergence; format: in vivo, Abutilon theophrasti; conditions: Postemergence, 1000 g ai/ha; visual rating after approx. 10 days, 0 to 100 scale (0 no effect, 100 complete control)
Outline: as §2

[19] = system: foxtail, giant; assay: Test A postemergence; format: in vivo, Setaria faberii; conditions: Postemergence, 1000 g ai/ha; visual rating after approx. 10 days, 0 to 100 scale (0 no effect, 100 complete control)
Outline: as §2

[20] = system: barnyardgrass; assay: Test C flooded paddy test; format: in vivo, Echinochloa crus-galli; conditions: Flood
From the text: as §1

[21] = 31 g ai/ha, scale 0 to 100 (0 no effect, 100 complete control)
[22] = 62 g ai/ha, scale 0 to 100 (0 no effect, 100 complete control)

SMILES	Plant response rating, Ducksalad [1, 21]	Plant response rating, Ducksalad ([1]; 125 g ai/ha, scale 0 to 100)	Plant response rating, Ducksalad ([1]; 250 g ai/ha, scale 0 to 100)	Crabgrass, Large plant response rating [2]	Pigweed plant response rating [3]	Corn plant response rating [4]	Corn plant response rating [5]	Crabgrass, Large plant response rating [6]	Wheat plant response rating [7]	Barnyardgrass plant response rating [8]	Velvetleaf plant response rating [9]	Plant response rating, Sedge, Umbrella [10, 21]	Plant response rating, Sedge, Umbrella [10, 22]	Plant response rating, Sedge, Umbrella ([10]; 125 g ai/ha, scale 0 to 100)	Plant response rating, Sedge, Umbrella ([10]; 250 g ai/ha, scale 0 to 100)	Morningglory plant response rating [11]	Morningglory plant response rating [12]	Foxtail, Giant plant response rating [13]	Wheat plant response rating [14]	Pigweed plant response rating [15]	further results
CCCc1cc(C(=O)NCC)nn1Cc1cccc(C(F)(F)F)c1 [Compound 29]	0	85	85	70	100	0	50	100	40	50	40	0	0	75	80	90	60	80	10	90	Plant response rating, Ducksalad [1, 22]: 0; Plant response rating, Rice [16, 21]: 0; Plant response rating, Rice [16, 22]: 0; Plant response rating, Rice ([16]; 125 g ai/ha, scale 0 to 100): 0; Plant response rating, Rice ([16]; 250 g ai/ha, scale 0 to 100): 0; Barnyardgrass plant response rating [17]: 80; Velvetleaf plant response rating [18]: 100; Foxtail, Giant plant response rating [19]: 90; Plant response rating, Barnyardgrass [20, 21]: 0; Plant response rating, Barnyardgrass [20, 22]: 0; Plant response rating, Barnyardgrass ([20]; 125 g ai/ha, scale 0 to 100): 0; Plant response rating, Barnyardgrass ([20]; 250 g ai/ha, scale 0 to 100): 20
CCCc1cc(C(=O)NC2CC2)nn1Cc1cccc(C(F)(F)F)c1 [Compound 30]	60	80	100	90	100	20	40	100	40	90	30	0	0	0	80	100	60	100	10	30	Plant response rating, Rice [16, 21]: 0; Plant response rating, Rice [16, 22]: 0; Plant response rating, Rice ([16]; 125 g ai/ha, scale 0 to 100): 0; Plant response rating, Rice ([16]; 250 g ai/ha, scale 0 to 100): 0; Barnyardgrass plant response rating [17]: 70; Velvetleaf plant response rating [18]: 100; Foxtail, Giant plant response rating [19]: 100; Plant response rating, Barnyardgrass [20, 21]: 0; Plant response rating, Barnyardgrass [20, 22]: 0; Plant response rating, Barnyardgrass ([20]; 125 g ai/ha, scale 0 to 100): 0; Plant response rating, Barnyardgrass ([20]; 250 g ai/ha, scale 0 to 100): 20
